Patent US20230203485A1, “METHODS FOR MODULATING MHC-I EXPRESSION AND IMMUNOTHERAPY USES THEREOF” (Dana-Farber Cancer Institute, Inc., priority 2020, published 2023)

Test system: class I antigen presentation gene expression in MCC cell lines
Experiment: RNA-seq / DESeq2 differential expression of MCC cell lines at baseline and after IFN-γ stimulation
Assay type: cell-based, human
Protocol: FIG. 2A comprises RNA-seq heatmaps of class I antigen presentation gene expression in MCC lines and controls.
FIG. 2B is a volcano plot of differentially expressed genes (genes below FDR cutoff 0.01 are shown in yellow) between baseline and IFN-γ-treated MCC cell lines. Differential expression analysis was performed using DESeq2, and negative LFC indicates increased expression in +IFN-γ samples. IFN genes are highlighted in red.
RNA samples were first assessed for quality using the Agilent Bioanalyzer (DV200 metric). One hundred ng of RNA were used as the input for first strand cDNA synthesis using Superscript III reverse transcriptase and Illumina's TruSeq RNA Access Sample Prep Kit. Synthesis of the second strand of cDNA was followed by indexed adapter ligation with UMI (unique molecular index) adaptors. Subsequent PCR amplification enriched for adapted fragments. Amplified libraries were quantified, normalized, pooled, and hybridized with exome targeting oligos. Following hybridization, bead clean-up, elution and PCR was performed to prepare library pools for sequencing on Illumina flowcell lanes. Transcriptomes were sequenced to a coverage of at least 50 million reads in pairs.
Raw fastq files for fibroblast and keratinocyte control lines were downloaded from SRA using R Bioconductor package SRAdb (Mayakonda et al. (2018) supra; Zhu et al. (2013) BMC Bioinformatics 14 (1): 1-4) using accession codes SRP126422 (4 replicates from control samples ‘NN’) and SRP131347 (6 replicates with condition: control and genotype: control). These fastq files, along with those for the mkl1 and waga cell lines, were aligned using STAR version 2.7.3a (Dobin et al. (2013) Bioinformatics 29 (1): 15-21), using index genome reference file downloaded from ftp.ebi.ac.uk/pub/databases/gencode/Gencode_human/release_19/GRCh37.p13.genome.fa.gz, transcript annotation file downloaded from data.broadinstitute.org/snowman/hg19/star/gencode.v19.annotation.gtf, and with the following options: --twopassMode Basic, --outSAMstrandField intronMotif, --alignIntronMax 1000000, --alignMatesGapMax 1000000, --sjdbScore 2, --outSAMtype BAM Unsorted, --outSAMattributes NH HI NM MD AS XS, --outFilterType BySJout, --outSAMunmapped Within, --genomeLoad NoSharedMemory, --outFilterScoreMinOverLread 0, --outFilterMatchNminOverLread 0, --outFilterMismatchNmax 999, and outFilterMultimapNmax 20. Duplicates were marked with picard MarkDuplicates version 2.22.0-SNAPSHOT.
RNA-sequencing bam files for MCC tumor and cell line samples were downloaded from the Broad Genomics Firecloud/Terra platform using the Google Cloud Storage command line tool gsutil version 4.5 (github.com/GoogleCloudPlatform/gsutil/).
Gene counts were obtained from bam files using featureCounts version 2.0.0 (doi.org/10.1093/bioinformatics/btt656). Very lowly expressed genes with average count across samples less than 1 were excluded from analysis. Between-sample distance metrics were computed using the Euclidean distance on the vectors of variance-stabilized counts obtained from the vst function in the DESeq2 R Bioconductor package ([…]; Love et al. (2014) Genome Biology 15 (12): 550).
Differential expression analysis was carried out between (1) viral positive and viral negative samples (adjusting for cell line or tumor as a covariate), (2) cell line and tumor samples (adjusting for viral status as a covariate), and (3) IFNγ plus and minus samples (adjusting for viral status as a covariate) using the negative binomial GLM Wald test of DESeq2, where significance was assessed using the p-values adjusted for multiple comparisons under default settings. To account for potential global gene expression differences among sample groups, RUVg (Risso et al. (2014) […] 32 (9): 896-902) was used to estimate latent factors of unwanted variation from the list of housekeeping genes downloaded from www.tau.ac.il/˜elieis/HKG/HK_genes.txt. […]

[1] = 11 MCC cell lines, baseline vs IFNγ, negative LFC = upregulation in IFNγ-treated

IFN-y: type II interferon, recombinant human, used to treat MCC cells
class I genes mRNA expression (RNA-seq) (10 of 11 MCC lines, baseline vs treated): markedly upregulated
log2FoldChange ACSL5 (ENSG00000197142.6) [1]: −5.831
log2FoldChange ADAR (ENSG00000160710.11) [1]: −1.068
log2FoldChange ADGRF3 (ENSG00000173567.10) [1]: −0.853
log2FoldChange ATP2C1 (ENSG00000017260.15) [1]: −0.5502
log2FoldChange ATP10D (ENSG00000145246.9) [1]: −2.417
log2FoldChange AZIN2 (ENSG00000142920.12) [1]: −1.224
log2FoldChange BATF2 (ENSG00000168062.5) [1]: −7.362
log2FoldChange BCL2L14 (ENSG00000121380.8) [1]: −5.59
log2FoldChange BCL6 (ENSG00000113916.13) [1]: −2.953
log2FoldChange BTN2A1 (ENSG00000112763.11) [1]: −0.9873
log2FoldChange BTN2A3P (ENSG00000124549.10) [1]: −4.459
log2FoldChange BTN3A1 (ENSG00000026950.12) [1]: −6.582
log2FoldChange BTN3A2 (ENSG00000186470.9) [1]: −6.089
log2FoldChange BTN3A3 (ENSG00000111801.11) [1]: −6.93
log2FoldChange C1QB (ENSG00000173369.11) [1]: −3.233
log2FoldChange C2 (ENSG00000166278.10) [1]: −4.096
log2FoldChange C4A (ENSG00000244731.3) [1]: −1.245
log2FoldChange C4B (ENSG00000224389.4) [1]: −2.248
log2FoldChange C5orf56 (ENSG00000197536.6) [1]: −3.71
log2FoldChange CARD16 (ENSG00000204397.3) [1]: −6.289
log2FoldChange CASC6 (ENSG00000224944.1) [1]: −3.263
log2FoldChange CASP1 (ENSG00000137752.18) [1]: −7.907
log2FoldChange CASP4 (ENSG00000196954.8) [1]: −4.024
log2FoldChange CASP7 (ENSG00000165806.15) [1]: −1.833
log2FoldChange CCDC73 (ENSG00000186714.8) [1]: −2.84
log2FoldChange CCND1 (ENSG00000110092.3) [1]: −5.698
log2FoldChange CD74 (ENSG00000019582.10) [1]: −8.494
log2FoldChange CD274 (ENSG00000120217.9) [1]: −6.119
log2FoldChange CDC20 (ENSG00000117399.9) [1]: 0.6763
log2FoldChange CFB (ENSG00000243649.4) [1]: −7.333
log2FoldChange CIR1 (ENSG00000138433.11) [1]: −0.5344
log2FoldChange CLVS1 (ENSG00000177182.6) [1]: −3.934
log2FoldChange CMPK2 (ENSG00000134326.7) [1]: −2.83
log2FoldChange CSF1 (ENSG00000184371.9) [1]: −3.741
log2FoldChange CTSO (ENSG00000256043.2) [1]: −3.005
log2FoldChange CXCL9 (ENSG00000138755.5) [1]: −11.74
log2FoldChange CXCL10 (ENSG00000169245.4) [1]: −5.89
log2FoldChange CXCL11 (ENSG00000169248.8) [1]: −4.672
log2FoldChange DDO (ENSG00000203797.5) [1]: −4.692
log2FoldChange DDX58 (ENSG00000107201.5) [1]: −2.939
log2FoldChange DDX60 (ENSG00000137628.12) [1]: −7.298
log2FoldChange DDX60L (ENSG00000181381.9) [1]: −3.461
log2FoldChange DNPEP (ENSG00000123992.14) [1]: −1.703
log2FoldChange DTX3L (ENSG00000163840.5) [1]: −4.603
log2FoldChange EIF2AK2 (ENSG00000055332.12) [1]: −1.367
log2FoldChange ENSG00000121848.9 (symbol NA) [1]: −0.3499
log2FoldChange ENSG00000197146.2 (symbol NA) [1]: −1.6
log2FoldChange ENSG00000202533.1 (symbol NA) [1]: −3.684
log2FoldChange ENSG00000213500.3 (symbol NA) [1]: −2.007
log2FoldChange ENSG00000224666.2 (symbol NA) [1]: −5.276
log2FoldChange ENSG00000224789.1 (symbol NA) [1]: −2.338
log2FoldChange ENSG00000225931.3 (symbol NA) [1]: −4.205
log2FoldChange ENSG00000229023.1 (symbol NA) [1]: −4.669
log2FoldChange ENSG00000229677.1 (symbol NA) [1]: −2.162
log2FoldChange ENSG00000230812.1 (symbol NA) [1]: −5.173
log2FoldChange ENSG00000231280.1 (symbol NA) [1]: −5.122
log2FoldChange ENSG00000232709.1 (symbol NA) [1]: −3.863
log2FoldChange ENSG00000233892.1 (symbol NA) [1]: −1.246
log2FoldChange ENSG00000234290.2 (symbol NA) [1]: −2.28
log2FoldChange ENSG00000238000.1 (symbol NA) [1]: −1.895
log2FoldChange ENSG00000238160.1 (symbol NA) [1]: −3.274
log2FoldChange ENSG00000238991.1 (symbol NA) [1]: −3.733
log2FoldChange ENSG00000245025.2 (symbol NA) [1]: −3.838
log2FoldChange ENSG00000248693.1 (symbol NA) [1]: −3.648
log2FoldChange ENSG00000252206.1 (symbol NA) [1]: −2.445
log2FoldChange ENSG00000260336.1 (symbol NA) [1]: −2.736
log2FoldChange ENSG00000261618.1 (symbol NA) [1]: −6.277
log2FoldChange ENSG00000271581.1 (symbol NA) [1]: −4.138
log2FoldChange ENSG00000271646.1 (symbol NA) [1]: −1.853
log2FoldChange ENSG00000272941.1 (symbol NA) [1]: −7.747
log2FoldChange ERAP1 (ENSG00000164307.8) [1]: −2.331
log2FoldChange ERAP2 (ENSG00000164308.12) [1]: −3.931
log2FoldChange ETV7 (ENSG00000010030.9) [1]: −5.205
log2FoldChange FAM110C (ENSG00000184731.5) [1]: −3.465
log2FoldChange FAM111A (ENSG00000166801.11) [1]: −2.679
log2FoldChange FAM186B (ENSG00000135436.4) [1]: −1.748
log2FoldChange FAS (ENSG00000026103.15) [1]: −2.315
